{"source": "patent US11426494B2", "about": "“Stents having biodegradable layers” (MT Acquisition Holdings LLC, priority 2007, dated 2022)", "key": {"[1]": {"test": "rapamycin degradation in DES coating (peak area ratio, control vs Micell processed)", "format": "physicochemical", "details": "Micell processed materials vs control samples, FIG. 6"}, "[2]": {"test": "drug elution from DES coating", "format": "physicochemical", "details": "heparin+taxol in DES coating, FIG. 9, preliminary data"}}}
{"compound": "CO[C@H]1C[C@@H]2CC[C@@H](C)[C@@](O)(O2)C(=O)C(=O)N2CCCC[C@H]2C(=O)O[C@H]([C@H](C)C[C@@H]2CC[C@@H](O)[C@H](OC)C2)CC(=O)[C@H](C)/C=C(\\C)[C@@H](O)[C@@H](OC)C(=O)[C@H](C)C[C@H](C)/C=C/C=C/C=C/1C", "note": "[rapamycin]", "values": [{"measurement": "rate of rapamycin degradation (peak area ratio)", "setting": "[1]", "value": "no difference in the rate of rapamycin degradation"}]}
{"compound": "CC(=O)O[C@H]1C(=O)[C@@]2(C)[C@H]([C@H](OC(=O)c3ccccc3)[C@]3(O)C[C@H](OC(=O)[C@H](O)[C@@H](NC(=O)c4ccccc4)c4ccccc4)C(C)=C1C3(C)C)[C@]1(OC(C)=O)CO[C@@H]1C[C@@H]2O", "note": "[taxol]", "values": [{"measurement": "primary drug (taxol) elution profile on addition of a 2nd drug (heparin)", "setting": "[2]", "value": "not affecting primary drug (taxol) elution profile"}]}
{"compound": "heparin", "values": [{"measurement": "heparin elution continuing", "setting": "[2]", "value": "> 15", "unit": "days"}]}
